Columns and labels:
Settings in all cases: compound 10.0 µM
AKT3 (human) = AKT3 (human) (UniProt Q9Y243)
BTK (human) = BTK (human) (UniProt Q06187)
CAMK1G (human) = CAMK1G (human) (UniProt Q96NX5)
CAMK2B (human) = CAMK2B (human) (UniProt Q13554)
CDC42BPG (human) = CDC42BPG (human) (UniProt Q6DT37)
CSNK1A1L (human) = CSNK1A1L (human) (UniProt Q8N752)
EIF2AK1 (human) = EIF2AK1 (human) (UniProt Q9BQI3)
EPHB2 (human) = EPHB2 (human) (UniProt P29323)
ERBB3 (human) = ERBB3 (human) (UniProt P21860)
IGF1R (human) = IGF1R (human) (UniProt P08069)
INSR (human) = INSR (human) (UniProt P06213)
[1] = target: JAK1 JH2 pseudokinase (human) (UniProt P23458)
Sequence of JAK1 JH2 pseudokinase (human) (P23458 whole entry, looked up): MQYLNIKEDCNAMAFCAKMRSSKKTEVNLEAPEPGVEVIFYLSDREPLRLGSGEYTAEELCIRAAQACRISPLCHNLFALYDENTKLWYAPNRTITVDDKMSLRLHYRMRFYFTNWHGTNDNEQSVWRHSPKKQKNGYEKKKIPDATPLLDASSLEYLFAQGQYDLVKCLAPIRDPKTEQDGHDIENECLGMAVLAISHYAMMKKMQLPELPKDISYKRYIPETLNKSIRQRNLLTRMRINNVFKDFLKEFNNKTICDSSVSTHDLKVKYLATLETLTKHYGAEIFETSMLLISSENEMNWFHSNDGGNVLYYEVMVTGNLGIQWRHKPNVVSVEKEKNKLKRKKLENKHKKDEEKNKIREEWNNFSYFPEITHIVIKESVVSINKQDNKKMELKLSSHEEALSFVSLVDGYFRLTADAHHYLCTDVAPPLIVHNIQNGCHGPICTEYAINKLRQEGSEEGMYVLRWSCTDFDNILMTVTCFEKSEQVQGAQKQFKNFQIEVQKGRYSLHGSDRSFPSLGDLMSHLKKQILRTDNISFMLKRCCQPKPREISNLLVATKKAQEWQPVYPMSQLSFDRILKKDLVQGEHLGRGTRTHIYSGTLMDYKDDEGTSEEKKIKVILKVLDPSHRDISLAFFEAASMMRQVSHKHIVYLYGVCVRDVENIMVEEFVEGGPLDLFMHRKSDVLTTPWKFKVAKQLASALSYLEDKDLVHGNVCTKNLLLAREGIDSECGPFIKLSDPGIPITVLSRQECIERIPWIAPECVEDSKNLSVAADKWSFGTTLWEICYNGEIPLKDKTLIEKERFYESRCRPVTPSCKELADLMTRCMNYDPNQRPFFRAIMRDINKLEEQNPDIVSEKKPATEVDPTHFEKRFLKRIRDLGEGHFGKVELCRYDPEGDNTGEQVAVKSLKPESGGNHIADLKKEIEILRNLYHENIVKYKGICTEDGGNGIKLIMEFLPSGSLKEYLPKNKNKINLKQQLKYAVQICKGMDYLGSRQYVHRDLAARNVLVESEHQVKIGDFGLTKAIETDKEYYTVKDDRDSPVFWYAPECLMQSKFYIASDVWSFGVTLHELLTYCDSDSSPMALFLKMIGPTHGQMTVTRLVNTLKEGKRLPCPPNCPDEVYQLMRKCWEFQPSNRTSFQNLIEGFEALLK

[2] = test system: KIT (human), P10721 [L576P]
MAP2K3 (human) = MAP2K3 (human) (UniProt P46734)
Sequence of MAP2K3 (human) (P46734 whole entry, looked up): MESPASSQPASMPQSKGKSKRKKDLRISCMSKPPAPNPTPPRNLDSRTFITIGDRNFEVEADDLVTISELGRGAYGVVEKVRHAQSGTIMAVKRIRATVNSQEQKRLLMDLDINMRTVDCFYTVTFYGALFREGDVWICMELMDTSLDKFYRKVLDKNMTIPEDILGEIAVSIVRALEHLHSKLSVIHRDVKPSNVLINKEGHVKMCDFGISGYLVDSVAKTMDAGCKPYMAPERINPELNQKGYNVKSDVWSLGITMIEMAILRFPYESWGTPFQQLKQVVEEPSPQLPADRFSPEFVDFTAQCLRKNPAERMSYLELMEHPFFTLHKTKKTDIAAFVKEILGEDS

MAP4K1 (human) = MAP4K1 (human) (UniProt Q92918)
MAP4K3 (human) = MAP4K3 (human) (UniProt Q8IVH8)
Sequence of MAP4K3 (human) (Q8IVH8 whole entry, looked up): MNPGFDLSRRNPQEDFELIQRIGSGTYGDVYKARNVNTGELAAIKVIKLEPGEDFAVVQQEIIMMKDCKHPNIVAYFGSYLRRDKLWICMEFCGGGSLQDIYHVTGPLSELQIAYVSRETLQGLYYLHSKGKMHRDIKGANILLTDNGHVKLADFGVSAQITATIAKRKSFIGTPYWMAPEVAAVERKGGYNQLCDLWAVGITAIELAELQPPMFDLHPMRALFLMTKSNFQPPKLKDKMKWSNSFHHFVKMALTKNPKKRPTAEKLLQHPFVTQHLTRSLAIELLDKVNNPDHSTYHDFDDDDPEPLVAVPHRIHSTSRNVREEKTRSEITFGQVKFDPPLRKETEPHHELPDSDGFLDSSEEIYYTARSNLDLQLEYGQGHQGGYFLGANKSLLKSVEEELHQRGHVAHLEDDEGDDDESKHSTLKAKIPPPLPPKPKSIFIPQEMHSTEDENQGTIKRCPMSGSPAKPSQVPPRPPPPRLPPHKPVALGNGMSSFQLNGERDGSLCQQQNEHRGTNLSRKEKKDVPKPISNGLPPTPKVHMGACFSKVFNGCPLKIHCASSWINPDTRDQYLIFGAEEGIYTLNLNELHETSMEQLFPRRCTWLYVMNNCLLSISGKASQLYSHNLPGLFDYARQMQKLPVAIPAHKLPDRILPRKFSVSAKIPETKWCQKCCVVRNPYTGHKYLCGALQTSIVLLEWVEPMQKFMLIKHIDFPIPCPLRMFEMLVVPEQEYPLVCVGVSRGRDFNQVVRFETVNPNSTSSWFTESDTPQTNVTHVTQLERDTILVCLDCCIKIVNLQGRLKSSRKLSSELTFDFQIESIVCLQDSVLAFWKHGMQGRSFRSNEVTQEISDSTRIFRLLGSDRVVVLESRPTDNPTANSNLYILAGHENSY

MAP4K4 (human) = MAP4K4 (human) (UniProt O95819)
MAPK10 (human) = MAPK10 (human) (UniProt P53779)
MAPK14 (human) = MAPK14 (human) (UniProt Q16539)
MAPK6 (human) = MAPK6 (human) (UniProt Q16659)
MARK1 (human) = MARK1 (human) (UniProt Q9P0L2)
MAST1 (human) = MAST1 (human) (UniProt Q9Y2H9)
MST1R (human) = MST1R (human) (UniProt Q04912)
MYLK2 (human) = MYLK2 (human) (UniProt Q9H1R3)
Sequence of MYLK2 (human) (Q9H1R3 whole entry, looked up): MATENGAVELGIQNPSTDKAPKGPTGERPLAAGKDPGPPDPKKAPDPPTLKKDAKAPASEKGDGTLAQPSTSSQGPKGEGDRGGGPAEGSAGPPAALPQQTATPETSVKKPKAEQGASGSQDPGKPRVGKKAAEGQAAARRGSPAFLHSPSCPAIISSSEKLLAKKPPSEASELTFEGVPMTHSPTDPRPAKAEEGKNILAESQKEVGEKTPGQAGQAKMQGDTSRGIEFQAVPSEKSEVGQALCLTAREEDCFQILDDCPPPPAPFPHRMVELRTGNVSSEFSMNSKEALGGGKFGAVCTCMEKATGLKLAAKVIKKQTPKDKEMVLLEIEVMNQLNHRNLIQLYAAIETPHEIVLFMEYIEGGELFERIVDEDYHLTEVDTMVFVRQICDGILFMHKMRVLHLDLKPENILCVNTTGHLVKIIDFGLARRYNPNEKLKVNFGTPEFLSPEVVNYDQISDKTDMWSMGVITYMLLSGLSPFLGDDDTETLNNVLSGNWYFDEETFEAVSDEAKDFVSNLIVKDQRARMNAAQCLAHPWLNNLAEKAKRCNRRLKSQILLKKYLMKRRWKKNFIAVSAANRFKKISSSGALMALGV

NEK2 (human) = NEK2 (human) (UniProt P51955)
NLK (human) = NLK (human) (UniProt Q9UBE8)
NUAK1 (human) = NUAK1 (human) (UniProt O60285)
PDGFRA (human) = PDGFRA (human) (UniProt P16234)
PIK3CB (human) = PIK3CB (human) (UniProt P42338)
PIP5K1A (human) = PIP5K1A (human) (UniProt Q99755)
PKN1 (human) = PKN1 (human) (UniProt Q16512)
PLK2 (human) = PLK2 (human) (UniProt Q9NYY3)
PRKCE (human) = PRKCE (human) (UniProt Q02156)
RIOK2 (human) = RIOK2 (human) (UniProt Q9BVS4)
ROCK2 (human) = ROCK2 (human) (UniProt O75116)
RPS6KA3 KD1 (human) = RPS6KA3 KD1 (human) (UniProt P51812)
Sequence of RPS6KA3 KD1 (human) (P51812 whole entry, looked up): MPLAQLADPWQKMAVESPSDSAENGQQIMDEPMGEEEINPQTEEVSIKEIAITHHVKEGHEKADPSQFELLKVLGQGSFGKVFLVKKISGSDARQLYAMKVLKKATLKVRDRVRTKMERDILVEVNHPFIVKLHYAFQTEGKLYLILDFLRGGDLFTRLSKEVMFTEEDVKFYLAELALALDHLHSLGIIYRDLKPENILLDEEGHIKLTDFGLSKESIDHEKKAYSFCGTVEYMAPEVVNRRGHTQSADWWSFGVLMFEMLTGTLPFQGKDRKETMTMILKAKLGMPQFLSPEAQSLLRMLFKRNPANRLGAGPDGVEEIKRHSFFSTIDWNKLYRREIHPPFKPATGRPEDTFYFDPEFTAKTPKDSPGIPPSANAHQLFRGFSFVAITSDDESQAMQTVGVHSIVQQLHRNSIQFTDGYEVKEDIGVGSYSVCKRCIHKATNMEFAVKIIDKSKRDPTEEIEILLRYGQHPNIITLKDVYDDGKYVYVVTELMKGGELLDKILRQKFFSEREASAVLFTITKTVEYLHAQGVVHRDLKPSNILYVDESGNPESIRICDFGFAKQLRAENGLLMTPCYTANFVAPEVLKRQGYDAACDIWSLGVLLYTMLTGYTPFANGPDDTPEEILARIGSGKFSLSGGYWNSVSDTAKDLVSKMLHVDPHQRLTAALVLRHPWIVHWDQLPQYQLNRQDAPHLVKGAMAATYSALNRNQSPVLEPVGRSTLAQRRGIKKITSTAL

RPS6KA5 KD1 (human) = RPS6KA5 KD1 (human) (UniProt O75582)
RPS6KB1 (human) = RPS6KB1 (human) (UniProt P23443)
Sequence of RPS6KB1 (human) (P23443 whole entry, looked up): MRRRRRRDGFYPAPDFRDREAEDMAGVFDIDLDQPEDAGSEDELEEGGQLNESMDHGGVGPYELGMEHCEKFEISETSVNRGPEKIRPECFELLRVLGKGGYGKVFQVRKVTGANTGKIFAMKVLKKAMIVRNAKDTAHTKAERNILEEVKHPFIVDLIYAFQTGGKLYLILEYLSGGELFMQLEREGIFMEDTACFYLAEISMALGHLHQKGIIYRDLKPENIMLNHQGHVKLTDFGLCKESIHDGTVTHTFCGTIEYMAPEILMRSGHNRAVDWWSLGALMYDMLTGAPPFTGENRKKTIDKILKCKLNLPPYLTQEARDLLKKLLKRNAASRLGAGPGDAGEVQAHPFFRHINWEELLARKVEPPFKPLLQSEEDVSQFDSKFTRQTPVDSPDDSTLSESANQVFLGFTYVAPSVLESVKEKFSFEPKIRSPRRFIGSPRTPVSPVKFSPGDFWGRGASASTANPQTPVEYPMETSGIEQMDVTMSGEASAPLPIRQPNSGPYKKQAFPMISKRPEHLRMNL

SNRK (human) = SNRK (human) (UniProt Q9NRH2)
Sequence of SNRK (human) (Q9NRH2 whole entry, looked up): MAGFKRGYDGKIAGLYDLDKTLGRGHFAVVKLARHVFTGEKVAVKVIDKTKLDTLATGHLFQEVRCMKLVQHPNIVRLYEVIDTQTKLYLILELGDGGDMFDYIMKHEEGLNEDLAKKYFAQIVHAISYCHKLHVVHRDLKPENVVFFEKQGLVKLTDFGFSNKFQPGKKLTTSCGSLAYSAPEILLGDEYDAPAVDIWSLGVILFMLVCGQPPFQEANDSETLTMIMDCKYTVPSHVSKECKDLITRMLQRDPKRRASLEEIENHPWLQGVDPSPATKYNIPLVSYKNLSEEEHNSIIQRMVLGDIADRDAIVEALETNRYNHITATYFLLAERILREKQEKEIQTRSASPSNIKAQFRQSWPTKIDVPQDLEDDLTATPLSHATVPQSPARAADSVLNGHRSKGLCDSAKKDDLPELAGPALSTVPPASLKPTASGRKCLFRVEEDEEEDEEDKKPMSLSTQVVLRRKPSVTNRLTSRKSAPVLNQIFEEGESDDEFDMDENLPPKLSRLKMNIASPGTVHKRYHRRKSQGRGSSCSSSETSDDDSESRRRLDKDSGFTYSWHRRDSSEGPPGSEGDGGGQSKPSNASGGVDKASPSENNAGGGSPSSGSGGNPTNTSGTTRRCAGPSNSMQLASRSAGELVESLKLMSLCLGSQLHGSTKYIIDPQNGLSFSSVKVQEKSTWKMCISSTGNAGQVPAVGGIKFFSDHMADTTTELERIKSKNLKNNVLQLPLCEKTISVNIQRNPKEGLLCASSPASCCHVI

SRMS (human) = SRMS (human) (UniProt Q9H3Y6)
TXK (human) = TXK (human) (UniProt P42681)

What does the source list for CNC(=O)c1cc(Oc2ccc(NC(=O)Nc3ccc(Cl)c(C(F)(F)F)c3)cc2)ccn1?
per cent of control (AKT3 (human)): 90%; per cent of control (BTK (human)): 62%; per cent of control (CAMK1G (human)): 87%; per cent of control (CAMK2B (human)): 96%; per cent of control (CDC42BPG (human)): 84%; per cent of control (CSNK1A1L (human)): 100%; per cent of control (EIF2AK1 (human)): 100%; per cent of control (EPHB2 (human)): 12%; per cent of control (ERBB3 (human)): 70%; per cent of control (IGF1R (human)): 100%; per cent of control (INSR (human)): 100%; per cent of control [1]: 97%; per cent of control [2]: 0%; per cent of control (MAP2K3 (human)): 93%; per cent of control (MAP4K1 (human)): 19%; per cent of control (MAP4K3 (human)): 48%; per cent of control (MAP4K4 (human)): 8.7%; per cent of control (MAPK10 (human)): 90%; per cent of control (MAPK14 (human)): 0.1%; per cent of control (MAPK6 (human)): 94%; per cent of control (MARK1 (human)): 90%; per cent of control (MAST1 (human)): 100%; per cent of control (MST1R (human)): 76%; per cent of control (MYLK2 (human)): 22%; per cent of control (NEK2 (human)): 90%; per cent of control (NLK (human)): 19%; per cent of control (NUAK1 (human)): 74%; per cent of control (PDGFRA (human)): 0%; per cent of control (PIK3CB (human)): 100%; per cent of control (PIP5K1A (human)): 100%; per cent of control (PKN1 (human)): 100%; per cent of control (PLK2 (human)): 100%; per cent of control (PRKCE (human)): 100%; per cent of control (RIOK2 (human)): 48%; per cent of control (ROCK2 (human)): 90%; per cent of control (RPS6KA3 KD1 (human)): 99%; per cent of control (RPS6KA5 KD1 (human)): 77%; per cent of control (RPS6KB1 (human)): 46%; per cent of control (SNRK (human)): 100%; per cent of control (SRMS (human)): 96%; per cent of control (TXK (human)): 98%

With CNC(=O)c1cc(Oc2ccc(NC(=O)Nc3ccc(Cl)c(C(F)(F)F)c3)cc2)cc[n+]1[O-] as the molecule, how does the per cent of control (AKT3 (human)) read?
The per cent of control was 93%.

What about the per cent of control (BTK (human)) of the same molecule?
The per cent of control was 30%.

What about the per cent of control (CAMK1G (human)) of the same molecule?
Its per cent of control is 76%.

And the per cent of control (CAMK2B (human))?
The per cent of control was 89%.

And the per cent of control (CDC42BPG (human))?
The per cent of control was 86%.

What about the per cent of control (CSNK1A1L (human)) of the same molecule?
The per cent of control was 100%.

What about the per cent of control (EIF2AK1 (human)) of the same molecule?
Its per cent of control is 100%.

And the per cent of control (EPHB2 (human))?
Its per cent of control is 19%.

What about the per cent of control (ERBB3 (human)) of the same molecule?
The per cent of control was 62%.

And the per cent of control (IGF1R (human))?
The per cent of control was 97%.

And the per cent of control (INSR (human))?
The per cent of control was 83%.

What about the per cent of control [1] of the same molecule?
The per cent of control was 96%.

And the per cent of control [2]?
Its per cent of control is 0%.

And the per cent of control (MAP2K3 (human))?
The per cent of control was 71%.

What about the per cent of control (MAP4K1 (human)) of the same molecule?
The per cent of control was 6%.

And the per cent of control (MAP4K3 (human))?
The per cent of control was 12%.

What about the per cent of control (MAP4K4 (human)) of the same molecule?
The per cent of control was 0.5%.

What about the per cent of control (MAPK10 (human)) of the same molecule?
The per cent of control was 4.4%.

And the per cent of control (MAPK14 (human))?
The per cent of control was 0%.

And the per cent of control (MAPK6 (human))?
The per cent of control was 100%.

And the per cent of control (MARK1 (human))?
Its per cent of control is 100%.

What about the per cent of control (MAST1 (human)) of the same molecule?
Its per cent of control is 100%.

What about the per cent of control (MST1R (human)) of the same molecule?
The per cent of control was 30%.

And the per cent of control (MYLK2 (human))?
The per cent of control was 8.7%.

What about the per cent of control (NEK2 (human)) of the same molecule?
Its per cent of control is 71%.

And the per cent of control (NLK (human))?
Its per cent of control is 11%.

What about the per cent of control (NUAK1 (human)) of the same molecule?
The per cent of control was 100%.

And the per cent of control (PDGFRA (human))?
The per cent of control was 0%.

What about the per cent of control (PIK3CB (human)) of the same molecule?
Its per cent of control is 93%.

What about the per cent of control (PIP5K1A (human)) of the same molecule?
The per cent of control was 100%.

And the per cent of control (PKN1 (human))?
Its per cent of control is 97%.

And the per cent of control (PLK2 (human))?
Its per cent of control is 77%.

What about the per cent of control (PRKCE (human)) of the same molecule?
The per cent of control was 100%.

And the per cent of control (RIOK2 (human))?
Its per cent of control is 42%.

And the per cent of control (ROCK2 (human))?
Its per cent of control is 82%.

What about the per cent of control (RPS6KA3 KD1 (human)) of the same molecule?
The per cent of control was 52%.

What about the per cent of control (RPS6KA5 KD1 (human)) of the same molecule?
Its per cent of control is 59%.

What about the per cent of control (RPS6KB1 (human)) of the same molecule?
Its per cent of control is 42%.

What about the per cent of control (SNRK (human)) of the same molecule?
The per cent of control was 95%.

And the per cent of control (SRMS (human))?
Its per cent of control is 10%.

What about the per cent of control (TXK (human)) of the same molecule?
The per cent of control was 78%.
